# From article PMC4721062, “Oxadiazole-2-oxides may have other functional targets, in addition to SjTGR, through which they cause mortality in Schistosoma japonicum” (Parasites & Vectors, 2016)
# “Also recorded” adds a separate entry of the source. Like-named read-outs stand apart in the source and are kept apart here.
# Tests used:
# juvenile S. japonicum = assay: microbe, parasite or virus in culture; type: cell-based; settings: for Killing activity 24hr / Killing activity 48hr / Killing activity 72hr / killing at 2 µM / killing at 5 µM / killing at 50 µM: juvenile worms
# Description: Infected Oncomelania hupensis, provided by the Department of Snail Biology, Jiangsu Institute of Parasitic Diseases, were incubated at 25–28 °C, under illumination, for 2 h to hatch S. japonicum cercariae. The cercariae were collected from the water surface with clean cover glass and placed into a centrifuge tube using pre cooled RPMI 1640. Centrifugation was performed for 1 min at 1500 rpm, and then the steps above were repeated. After centrifugation, the supernatant solution was removed. The cercariae at the bottom were washed twice and resuspended with RPMI 1640. Approximately 20–30 cercariae (1 mL of the resuspension medium) were added to one well in a 24-well culture plate. They were incubated overnight at 37 °C with 5 % CO2. The survival rates and number of tails shed were observed under an inverted microscope. Cercariae that had shed their tails were used as juvenile S. japonicum.
# 20–30 juvenile worms were transferred into each well of a 24-well culture plate, containing 2 mL RPMI 1640 medium, 20 mM HEPES, 100 IU/mL penicillin, […] streptomycin and 10 % fetal bovine serum. Then, oxadiazole-2-oxides (2, 5, 10, and 50 μM), diluted with the RPMI 1640 medium, were added to their allocated wells. The worms in the negative control wells were treated with equal volumes of RPMI 1640 or DMSO and worms treated with AS were observed as positive controls. The juvenile worms’ survival rates were observed under an inverted phase contrast microscope (Leica, Wetzlar, Germany) at 24, 48 and 72 h. Parasite death was defined as an unclear internal structure of the juvenile worms, with incomplete tegument and contents overflowing radially, or unclear internal structure with complete tegument, but having no motor activity during 1 min of continuous observation. All assays were repeated three times.
# ^b Data collected by visual examination of worm movement and shape; % D = The number of worms dead / The total number of worms observed, and worms dead judged by unclear internal structure of juvenile worms with uncompleted tegument, and contents overflowing radially, or unclear internal structure with complete tegument, but having no motor activity during 1 min of continuous observation. The data presented are the average of three independent experiments.
# recombinant SjTGR = target: T1, recombinant SjTGR (Schistosoma japonicum, UniProt B5THG7); assay: Inhibition of TrxR activity of recombinant SjTGR (DTNB assay); type: biochemical; settings: 50 nM SjTGR, 1 mM NADPH, 15 min preincubation, DTNB reduction; for IC50: read-out: IC50 of SjTGR
# T1 sequence (B5THG7 1-596): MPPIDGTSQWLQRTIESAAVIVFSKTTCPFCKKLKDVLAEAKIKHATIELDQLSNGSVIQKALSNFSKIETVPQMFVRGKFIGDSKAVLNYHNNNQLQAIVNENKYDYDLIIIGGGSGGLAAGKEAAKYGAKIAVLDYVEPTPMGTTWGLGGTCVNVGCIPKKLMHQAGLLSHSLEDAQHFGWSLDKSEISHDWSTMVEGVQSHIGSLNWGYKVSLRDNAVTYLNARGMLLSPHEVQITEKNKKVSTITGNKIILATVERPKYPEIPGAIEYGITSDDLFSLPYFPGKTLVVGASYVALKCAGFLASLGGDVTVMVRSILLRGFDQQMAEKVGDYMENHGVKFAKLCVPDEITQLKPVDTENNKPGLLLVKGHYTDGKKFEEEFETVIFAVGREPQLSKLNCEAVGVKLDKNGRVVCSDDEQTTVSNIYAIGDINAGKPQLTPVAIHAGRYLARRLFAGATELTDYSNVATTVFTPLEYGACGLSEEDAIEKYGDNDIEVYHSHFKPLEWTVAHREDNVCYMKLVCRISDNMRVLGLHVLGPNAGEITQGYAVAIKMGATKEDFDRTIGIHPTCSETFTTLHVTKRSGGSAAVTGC
# Description: The purified recombinant SjTGR proteins were produced according to the method described by Song et al.. The inhibition of TrxR activity by the recombinant SjTGR was performed as reported by Rai et al.. Briefly, 50 nM SjTGR and 1 mM NADPH were incubated with different concentrations of oxadiazole-2-oxides (2, 4, 6, 10, 20 μM) for 15 min at room temperature. Then, potassium phosphate buffer (pH 7.4) containing 10 mM EDTA, 100 μM NADPH, and 3 mM DTNB was added to start the reaction. The increase of absorbance at 412 nm was monitored during the first 2 min. All assays were done in triplicate.
# 50 nM SjTGR and 1 mM NADPH were incubated with different concentrations of oxadiazole-2-oxides (2, 4, 6, 10, 20 μM) for 15 min at room temperature. Then, potassium phosphate buffer (pH 7.4) containing 10 mM EDTA, 100 μM NADPH, 3 mM DTNB was added to start the reaction. The increase in absorbance at 412 nm was monitored during the first 2 min. All assays were done in triplicate. Results shown are the mean ± SD (n = 3)
# adult S. japonicum = assay: microbe, parasite or virus in culture; type: cell-based; settings: for Killing activity 24hr / Killing activity 48hr / Killing activity 72hr / killing at 25 µM / killing at 50 µM / killing at 100 µM: adult worms
# Excerpt: ICR mice (20–22 g), were obtained from the Shanghai Sub-Center of Experimental Animals, Chinese Academy of Sciences. They were maintained at the Department of Experimental Animals, Jiangsu Institute of Parasitic Diseases. To infect each mouse, its abdominal skin was exposed to 50 S. japonica cercariae. All of the mice were executed to collect S. japonica adult worms, through portal vein perfusion, 35 days post-infection. The adult S. japonica collected were washed with RPMI 1640 medium and then kept in RPMI 1640 medium (pH 7.5) with HEPES 20 mM, penicillin (100 IU/mL), streptomycin ([…]) and 10 % fetal bovine serum. Then, two pairs of adult worms were transferred into each well of a 24-well culture plate, with 2 mL of the same medium. The worms were cultured at 37 °C in a humid atmosphere with 5 % CO2.
# Adult worms were cultured in a 24-well culture plate for 30–60 min at 37 °C, in a humid atmosphere with 5 % CO2. Then, oxadiazole-2-oxides at different concentrations (10, 25, 50, 100 μM) were added. Equal volumes of RPMI 1640 or DMSO were applied as negative controls, while PZQ was applied as a positive control. The adult worm mobility and parasite survival rates were monitored using an inverted phase contrast microscope, at 24, 48 and 72 h. Parasite death was defined as there being no motor activity during 2 min of continuous observation, and morphological and tegumental alterations. All assays were repeated three times.
# ^b Data collected by visual examination of worm movement and shape; n.e. […] The data presented are the average of three independent experiments.
# [1] = Schistosoma japonicum, 50 μM, 24 h, read-out: Killing activity 24hr
# [2] = Schistosoma japonicum, 50 μM, 48 h, read-out: Killing activity 48hr
# [3] = Schistosoma japonicum, 50 μM, 72 h, read-out: Killing activity 72hr
compound,measurement,setting,value
N#Cc1c(-c2ccc(OCCCOc3ccc(-c4no[n+]([O-])c4C#N)cc3)cc2)no[n+]1[O-] [Compound 21],Killing activity 24hr,"juvenile S. japonicum; 2 μM, 24 h",22.5%D
same,Killing activity 48hr,"juvenile S. japonicum; 2 μM, 48 h",22.5%D
same,Killing activity 72hr,"juvenile S. japonicum; 2 μM, 72 h",27.5%D
same,Killing activity 24hr,"juvenile S. japonicum; 5 μM, 24 h",26.7%D
same,Killing activity 48hr,"juvenile S. japonicum; 5 μM, 48 h",26.7%D
same,Killing activity 72hr,"juvenile S. japonicum; 5 μM, 72 h",30.0%D
same,Killing activity 24hr,"juvenile S. japonicum; 10 μM, 24 h",30.0%D
same,Killing activity 48hr,"juvenile S. japonicum; 10 μM, 48 h",33.3%D
same,Killing activity 72hr,"juvenile S. japonicum; 10 μM, 72 h",56.7%D
same,Killing activity 24hr,"juvenile S. japonicum; 50 μM, 24 h",33.3%D
same,Killing activity 48hr,"juvenile S. japonicum; 50 μM, 48 h",38.3%D
same,Killing activity 72hr,"juvenile S. japonicum; 50 μM, 72 h",67.0%D
same,IC50 of SjTGR,recombinant SjTGR,did not inhibit SjTGR; also recorded: neither did they inhibit the SjTGR activity
same,IC50,recombinant SjTGR,> 20 µM
same,Killing activity 24hr,"adult S. japonicum; 10 μM, 24 h",n.e.
same,Killing activity 48hr,"adult S. japonicum; 10 μM, 48 h",sluggish
same,Killing activity 72hr,"adult S. japonicum; 10 μM, 72 h",sluggish
same,Killing activity 24hr,"adult S. japonicum; 25 μM, 24 h",n.e
same,Killing activity 48hr,"adult S. japonicum; 25 μM, 48 h",100%D
same,Killing activity 72hr,"adult S. japonicum; 25 μM, 72 h",100%D
same,Killing activity 24hr,"adult S. japonicum; 50 μM, 24 h",66.7%D
same,Killing activity 48hr,"adult S. japonicum; 50 μM, 48 h",100%D
same,Killing activity 72hr,"adult S. japonicum; 50 μM, 72 h",100%D
same,Killing activity 24hr,"adult S. japonicum; 100 μM, 24 h",75.0%D
same,Killing activity 48hr,"adult S. japonicum; 100 μM, 48 h",100%D
same,Killing activity 72hr,"adult S. japonicum; 100 μM, 72 h",100%D
N#Cc1c(-c2ccc(CBr)cc2)no[n+]1[O-] [Compound 22],mortality at 50 µM,"juvenile S. japonicum; Schistosoma japonicum, 24 h, read-out: Mortality of juvenile worms",> 70%
same,killing at 2 µM,"juvenile S. japonicum; Schistosoma japonicum, 2 μM, 24 h, read-out: Killing activity 24hr",18.1%
same,killing at 2 µM,"juvenile S. japonicum; Schistosoma japonicum, 2 μM, 48 h, read-out: Killing activity 48hr",30.1%
same,killing at 2 µM,"juvenile S. japonicum; Schistosoma japonicum, 2 μM, 72 h, read-out: Killing activity 72hr",41%
same,killing at 5 µM,"juvenile S. japonicum; Schistosoma japonicum, 5 μM, 24 h, read-out: Killing activity 24hr",18.6%
same,killing at 5 µM,"juvenile S. japonicum; Schistosoma japonicum, 5 μM, 48 h, read-out: Killing activity 48hr",30.2%
same,killing at 5 µM,"juvenile S. japonicum; Schistosoma japonicum, 5 μM, 72 h, read-out: Killing activity 72hr",41.8%
same,killing at 50 µM,juvenile S. japonicum; [1],100%
same,killing at 50 µM,juvenile S. japonicum; [2],100%
same,killing at 50 µM,juvenile S. japonicum; [3],100%
same,Killing activity 48hr,"juvenile S. japonicum; 10 μM, 48 h",41.4%D
same,Killing activity 72hr,"juvenile S. japonicum; 10 μM, 72 h",69.0%D
same,IC50,recombinant SjTGR,9.7 µM
same,mortality at 25 µM,"adult S. japonicum; Schistosoma japonicum, 24 h, read-out: Mortality of adult worms",> 75%
same,killing at 25 µM,"adult S. japonicum; Schistosoma japonicum, 25 μM, 24 h, read-out: Killing activity 24hr",90%
same,killing at 25 µM,"adult S. japonicum; Schistosoma japonicum, 25 μM, 48 h, read-out: Killing activity 48hr",100%
same,killing at 25 µM,"adult S. japonicum; Schistosoma japonicum, 25 μM, 72 h, read-out: Killing activity 72hr",100%
same,killing at 50 µM,adult S. japonicum; [1],90.9%
same,killing at 50 µM,adult S. japonicum; [2],100%
same,killing at 50 µM,adult S. japonicum; [3],100%
same,killing at 100 µM,"adult S. japonicum; Schistosoma japonicum, 100 μM, 24 h, read-out: Killing activity 24hr",100%
same,killing at 100 µM,"adult S. japonicum; Schistosoma japonicum, 100 μM, 48 h, read-out: Killing activity 48hr",100%
same,killing at 100 µM,"adult S. japonicum; Schistosoma japonicum, 100 μM, 72 h, read-out: Killing activity 72hr",100%
same,Killing activity 24hr,"adult S. japonicum; 10 μM, 24 h",44.4%D
same,Killing activity 48hr,"adult S. japonicum; 10 μM, 48 h",66.7%D
same,Killing activity 72hr,"adult S. japonicum; 10 μM, 72 h",88.9%D
